According to patent US11420966B2 (ACLARIS THERAPEUTICS, INC., priority 2019, dated 2022):

What was measured:
JAK1 = JAK1 (Homo sapiens (Human), UniProt P23458); test: JAK1 enzyme activity assay (Thermo Fisher SelectScreen, Z-lyte); assay type: biochemical; conditions: read-out: JAK1 Inhibition IC50
Procedure: (§1) JAK1, JAK2, JAK3, and Tyk-2 Enzyme Activity Assays
(§2) The inhibitory potency of candidate compounds of JAK1, JAK2, and Tyk-2 was done at Thermo Fisher Scientific in their Selectscreen using a Z-lyte assay. Following are the assay details for each enzyme.
JAK: The 2×JAK-enzyme/Tyr 06 mixture is prepared in 50 mM HEPES pH 6.5, 0.01% BRIJ-35, 10 mM MgCl2, 1 mM EGTA, 0.02% NaN3. The final 10 μL of the Kinase Reaction consists of 21.2-91.5 ng JAK and 2 M Tyr 06 in 50 mM HEPES pH 7.0, 0.01% BRIJ-35, 10 mM MgCl2, 1 mM EGTA, 0.01% NaN3. After the one hour Kinase Reaction incubation, 5 μL of a 1:128 dilution of Development Reagent is added.
(§3) Data reduction for JAK1, JAK2 and TYK2 is done the same, independent of the enzyme run. In summary, background signal is defined in the absence of enzyme and uninhibited signal is defined in the presence of vehicle (2% DMSO) alone. Compounds were evaluated in an 11 point dose-response ranging from […] to 0.34 nM. IC50 values of compounds are determined using a 4 parameter logistical fit of emission ratio as a function of the concentration of compound.

JAK2 = JAK2 (Homo sapiens (Human), UniProt O60674); test: JAK2 enzyme activity assay (Thermo Fisher SelectScreen, Z-lyte); assay type: biochemical; conditions: read-out: JAK2 Inhibition IC50
Procedure: as §1, §2
JAK2: The 2×JAK2/Tyr 06 mixture is prepared in 50 mM HEPES pH 7.5, 0.01% BRIJ-35, 10 mM MgCl2, 1 mM EGTA. The final 10 μL Kinase Reaction consists of 0.12-0.5 ng JAK2 and 2 M Tyr 06 in 50 mM HEPES pH 7.5, 0.01% BRIJ-35, 10 mM MgCl2, 1 mM EGTA. After the one hour Kinase Reaction incubation, 5 μL of a 1:128 dilution of Development Reagent A is added.
as §3

JAK3 (a.a. 781-1124) = JAK3 (a.a. 781-1124) (Homo sapiens (Human), UniProt P52333); test: JAK3 enzyme activity assay (SRCtide phosphorylation, Caliper); assay type: biochemical; conditions: 1 uM ATP; read-out: JAK3 Inhibition IC50
Procedure: as §1
Kinase reactions were run in a 384-well Greiner plate with 2% final DMSO concentration under the buffer conditions of 20 mM HEPES, pH 7.5, 10 mM MgCl2, 0.01% BSA, and 0.0005% Tween-20. The kinase reaction components were 2.5 nM JAK3, 1 μM SRCtide peptide and 1 uM ATP. Examples were tested in dose-response starting at 2 M (11 concentrations, 3-fold serial dilution, duplicate reactions). The reactions were incubated at room temperature for 40 minutes, then stopped by adding a 1:1 volume of 30 mM EDTA in 20 mM HEPES, pH 7.5 (15 mM EDTA final). After the reaction was stopped, the phosphorylated and unphosphorylated peptides were separated and quantified using a Caliper LC3000/EZ-Reader system and HTS Well Analyzer Software (Caliper, A PerkinElmer Company, Hopkinton, Mass.). GraFit (Erithacus Software Ltd., Horley, U.K.) was used to calculate inhibitor potency by fitting dose-response data to the 4-parameter logistical IC50 equation.

Tyk-2 = Tyk-2 (Homo sapiens (Human), UniProt P29597); test: Tyk-2 enzyme activity assay (Thermo Fisher SelectScreen, Z-lyte); assay type: biochemical; conditions: read-out: Tyk-2 Inhibition IC50
Procedure: as §1, §2
TYK2: The 2×TYK2/Tyr 03 mixture is prepared in 50 mM HEPES pH 6.5, 0.01% BRIJ-35, 10 mM MgCl2, 1 mM EGTA, 0.02% NaN3. The final 10 μL Kinase Reaction consists of 3.75-15 ng TYK2 and 2 M Tyr 03 in 50 mM HEPES pH 7.0, 0.01% BRIJ-35, 10 mM MgCl2, 1 mM EGTA, 0.01% NaN3. After the one hour KinaseReaction incubation, 5 μL of a 1:4096 dilution of Development Reagent A is added.
as §3

[1] = test system: IL-2 stimulated STAT5 phosphorylation on Tyr694 (JAK1/3); test: JAK1/3 cellular target modulation: IL-2 stimulated phospho-STAT5 in PBMC; assay type: cell-based; conditions: human PBMC, IL-2 25 ng/ml; read-out: IL2-STAT5 IC50
Source text: (§4) JAK Cellular Target Modulation Assays
(§5) Target modulation was based upon the ability of a compound to inhibit JAK isoform specific phosphorylation of selected substrates. IL-2 stimulated STAT5 phosphorylation on Tyr694 was used to assess JAK1/3 compound selectivity. GM-CSF stimulated STAT5 phosphorylation on Tyr694 was used to assess JAK2 compound selectivity. IFNγ stimulated STAT1 phosphorylation on Tyr701 was used to assess JAK1/2 compound selectivity. IL-12 stimulated STAT4 phosphorylation on Tyr693 was used to assess JAK2/TYK2 compound selectivity. For all four assays, human PBMC from frozen stocks were thawed, pelleted, resuspended in complete media (90% RPMI, 10% heat inactivated FBS, 10 mM HEPES, 47 μM 2-ME, pen/strep) and placed in wells of a 96 well V-bottom plate at 200,000 per well in 120 μl complete media. Compounds were added as 15 μl per well of 10× working stock solutions in complete media with 1% DMSO (or medium with 1% DMSO for controls) and placed on a plate shaker in a 37° C. incubator with 5% CO2 for 1 hour with gentle shaking (setting of 3). Stimulation used the addition of soluble cytokines. For the JAK1/3 phospho-STAT5 assay, 15 μl of 10× working stock recombinant human IL-2 was added to a final concentration of 25 ng/ml. For the JAK2 phospho-STAT5 assay, 15 μl of 10× working stock recombinant human GM-CSF was added to a final concentration of 5 ng/ml. For the JAK1/2 phospho-STAT1 assay, 15 μl of 10× working stock of recombinant human IFNγ was added to a final concentration of 10 ng/ml. For the JAK2/TYK2 phospho-STAT4 assay, 15 μl of 10× working stock of recombinant human IL-12 was added to a final concentration of 1.7 ng/ml. Plates were then placed back on the plate shaker in the incubator for an additional 5, 5, 10, and 25 minutes respectively upon which the plates were removed from the incubator, sealed with a plate sealer and the cells pelleted at 400×g for 5 minutes. After pelleting, the media was removed by aspiration and the cells were lysed in assay specific cell lysis buffer. The levels of phospho-STATS were determined using a Phospho (Tyr694) STAT5a,b Whole Cell Lysate kit from Meso Scale Discovery. Levels of phospho-STAT1 were determined using a CST-PathScan Phospho-STAT1 (Tyr701) Sandwich ELISA kit. Levels of phospho-STAT4 were determined using a Phospho-STAT4 (Tyr693) Whole Cell Lysate kit from Meso Scale Discovery.

[2] = test system: IFNγ stimulated STAT1 phosphorylation on Tyr701 (JAK1/2); test: JAK1/2 cellular target modulation: IFNγ stimulated phospho-STAT1 in PBMC; assay type: cell-based; conditions: human PBMC, IFNγ 10 ng/ml; read-out: Infγ-STAT1 IC50
Source text: as §4, §5

[3] = test system: IL-12 stimulated STAT4 phosphorylation on Tyr693 (JAK2/TYK2); test: JAK2/TYK2 cellular target modulation: IL-12 stimulated phospho-STAT4 in PBMC; assay type: cell-based; conditions: human PBMC, IL-12 1.7 ng/ml; read-out: IL12-STAT4 IC50
Source text: as §4, §5

Chain of JAK2 (O60674 whole entry): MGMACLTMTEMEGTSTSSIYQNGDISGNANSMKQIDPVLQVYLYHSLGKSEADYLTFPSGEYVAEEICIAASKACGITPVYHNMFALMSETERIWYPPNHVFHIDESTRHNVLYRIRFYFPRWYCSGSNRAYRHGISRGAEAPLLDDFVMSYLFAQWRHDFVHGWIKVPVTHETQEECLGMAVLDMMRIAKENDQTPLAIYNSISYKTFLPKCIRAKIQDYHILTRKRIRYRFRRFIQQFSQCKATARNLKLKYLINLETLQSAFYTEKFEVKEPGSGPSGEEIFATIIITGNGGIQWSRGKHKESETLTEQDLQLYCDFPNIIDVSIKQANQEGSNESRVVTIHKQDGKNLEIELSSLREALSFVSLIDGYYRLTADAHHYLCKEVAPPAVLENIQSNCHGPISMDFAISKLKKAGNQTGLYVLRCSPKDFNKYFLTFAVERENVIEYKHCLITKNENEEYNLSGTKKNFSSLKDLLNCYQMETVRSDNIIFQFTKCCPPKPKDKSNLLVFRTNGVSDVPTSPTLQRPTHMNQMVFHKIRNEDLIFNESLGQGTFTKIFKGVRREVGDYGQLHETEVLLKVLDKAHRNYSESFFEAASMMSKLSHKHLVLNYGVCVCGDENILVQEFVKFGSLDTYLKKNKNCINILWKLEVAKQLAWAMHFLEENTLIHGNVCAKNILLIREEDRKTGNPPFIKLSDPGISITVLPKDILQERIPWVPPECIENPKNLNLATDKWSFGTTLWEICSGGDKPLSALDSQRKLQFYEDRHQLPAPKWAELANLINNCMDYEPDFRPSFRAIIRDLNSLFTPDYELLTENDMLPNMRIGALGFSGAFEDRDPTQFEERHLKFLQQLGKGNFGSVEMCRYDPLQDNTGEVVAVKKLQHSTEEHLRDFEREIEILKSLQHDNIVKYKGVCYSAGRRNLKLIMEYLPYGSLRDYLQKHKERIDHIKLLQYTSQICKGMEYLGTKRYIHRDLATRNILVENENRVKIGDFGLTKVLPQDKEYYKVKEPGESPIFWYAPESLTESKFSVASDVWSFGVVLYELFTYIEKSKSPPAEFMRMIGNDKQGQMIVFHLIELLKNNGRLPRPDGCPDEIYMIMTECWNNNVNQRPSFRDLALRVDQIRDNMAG
Chain of JAK3 (a.a. 781-1124) (P52333 781-1124): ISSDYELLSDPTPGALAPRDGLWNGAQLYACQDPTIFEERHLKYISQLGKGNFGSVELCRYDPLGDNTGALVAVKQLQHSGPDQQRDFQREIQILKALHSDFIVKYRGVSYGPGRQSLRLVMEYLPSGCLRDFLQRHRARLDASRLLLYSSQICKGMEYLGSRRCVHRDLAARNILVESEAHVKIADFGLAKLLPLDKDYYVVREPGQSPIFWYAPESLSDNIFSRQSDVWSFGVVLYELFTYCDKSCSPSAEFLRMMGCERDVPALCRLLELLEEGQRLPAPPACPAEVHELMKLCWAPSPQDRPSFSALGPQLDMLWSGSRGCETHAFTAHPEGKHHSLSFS
Chain of JAK1 (P23458 whole entry): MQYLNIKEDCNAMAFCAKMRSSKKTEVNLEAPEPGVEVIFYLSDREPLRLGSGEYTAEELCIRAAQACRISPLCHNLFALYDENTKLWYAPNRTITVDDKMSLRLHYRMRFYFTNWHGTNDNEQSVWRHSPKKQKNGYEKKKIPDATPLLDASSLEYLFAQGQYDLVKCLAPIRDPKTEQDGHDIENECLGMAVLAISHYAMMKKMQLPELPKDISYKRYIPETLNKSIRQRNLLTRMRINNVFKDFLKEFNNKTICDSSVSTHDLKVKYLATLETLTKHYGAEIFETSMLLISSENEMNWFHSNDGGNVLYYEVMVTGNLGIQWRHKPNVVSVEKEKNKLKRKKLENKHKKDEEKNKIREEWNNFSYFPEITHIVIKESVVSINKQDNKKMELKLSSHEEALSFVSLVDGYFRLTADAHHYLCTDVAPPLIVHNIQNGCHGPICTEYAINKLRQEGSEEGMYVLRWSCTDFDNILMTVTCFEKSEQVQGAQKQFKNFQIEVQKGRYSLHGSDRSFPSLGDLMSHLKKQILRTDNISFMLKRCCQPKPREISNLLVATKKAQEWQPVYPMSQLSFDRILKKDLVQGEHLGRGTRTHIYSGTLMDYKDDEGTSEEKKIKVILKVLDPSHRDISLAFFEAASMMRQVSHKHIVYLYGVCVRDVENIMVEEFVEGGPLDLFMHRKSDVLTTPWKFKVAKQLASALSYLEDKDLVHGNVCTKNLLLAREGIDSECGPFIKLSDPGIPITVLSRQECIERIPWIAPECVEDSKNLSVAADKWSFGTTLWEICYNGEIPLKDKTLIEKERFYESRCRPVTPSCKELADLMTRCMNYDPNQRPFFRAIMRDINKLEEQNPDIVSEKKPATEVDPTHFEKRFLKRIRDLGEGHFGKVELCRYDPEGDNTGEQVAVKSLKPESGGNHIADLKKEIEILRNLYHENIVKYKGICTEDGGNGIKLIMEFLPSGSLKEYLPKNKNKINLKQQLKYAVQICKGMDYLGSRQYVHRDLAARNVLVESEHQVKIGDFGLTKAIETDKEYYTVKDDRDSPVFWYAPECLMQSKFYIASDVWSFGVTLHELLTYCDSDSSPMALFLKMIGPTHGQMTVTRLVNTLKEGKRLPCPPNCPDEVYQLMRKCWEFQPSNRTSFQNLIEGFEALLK
Chain of Tyk-2 (P29597 whole entry): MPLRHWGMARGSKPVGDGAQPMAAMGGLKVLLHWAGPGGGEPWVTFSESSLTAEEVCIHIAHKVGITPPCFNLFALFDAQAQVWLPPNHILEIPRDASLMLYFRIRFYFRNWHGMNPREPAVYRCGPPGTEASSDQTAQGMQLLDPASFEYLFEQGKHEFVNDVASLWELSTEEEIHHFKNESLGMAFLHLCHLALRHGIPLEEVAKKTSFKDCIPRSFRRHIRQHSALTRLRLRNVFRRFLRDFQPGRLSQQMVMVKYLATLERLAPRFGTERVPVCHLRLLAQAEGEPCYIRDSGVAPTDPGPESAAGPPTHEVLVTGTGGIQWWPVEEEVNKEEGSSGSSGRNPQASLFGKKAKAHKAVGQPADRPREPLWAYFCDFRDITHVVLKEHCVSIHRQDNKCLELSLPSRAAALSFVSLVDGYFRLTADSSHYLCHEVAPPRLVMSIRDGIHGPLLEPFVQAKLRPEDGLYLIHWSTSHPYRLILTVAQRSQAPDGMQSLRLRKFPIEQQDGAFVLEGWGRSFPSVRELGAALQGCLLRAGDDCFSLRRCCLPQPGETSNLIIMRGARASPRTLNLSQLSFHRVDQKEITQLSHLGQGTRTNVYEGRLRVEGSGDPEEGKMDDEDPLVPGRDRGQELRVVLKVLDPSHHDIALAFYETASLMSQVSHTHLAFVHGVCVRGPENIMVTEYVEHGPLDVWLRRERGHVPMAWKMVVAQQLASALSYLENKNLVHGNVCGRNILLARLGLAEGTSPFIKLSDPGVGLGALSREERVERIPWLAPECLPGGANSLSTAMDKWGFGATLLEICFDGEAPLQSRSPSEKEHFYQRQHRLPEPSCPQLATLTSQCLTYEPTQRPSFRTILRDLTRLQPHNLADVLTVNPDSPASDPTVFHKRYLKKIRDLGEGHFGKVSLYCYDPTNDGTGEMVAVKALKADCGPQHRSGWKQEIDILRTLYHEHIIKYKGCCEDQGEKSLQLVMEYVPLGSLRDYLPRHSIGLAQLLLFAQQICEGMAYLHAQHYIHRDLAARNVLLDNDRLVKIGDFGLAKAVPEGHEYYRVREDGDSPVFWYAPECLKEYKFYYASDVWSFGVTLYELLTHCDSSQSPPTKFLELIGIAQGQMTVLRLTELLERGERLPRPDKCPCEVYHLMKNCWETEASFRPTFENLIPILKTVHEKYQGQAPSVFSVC

IC50 (JAK1) [nM]	IC50 (JAK2) [nM]	IC50 (JAK3 (a.a. 781-1124)) [nM]	IC50 (Tyk-2) [nM]	IC50 [1] [nM]	IC50 [2] [nM]	IC50 [3] [nM]	Structure (SMILES)
≤ 10	≤ 10	≤ 10	≤ 10	≤ 100	≤ 100	100 to 1000	N#CCC(=O)N1CCC[C@@H](Nc2c(-c3nccs3)cnc3[nH]ccc23)C1 [Example 4, (R)-3-oxo-3-(3-((5-(thiazol-2-yl)-1H-pyrrolo[2,3-b]pyridin-4-yl)amino)piperidin-1-yl)propanenitrile]
≤ 10	≤ 10	≤ 10	≤ 10	≤ 100	≤ 100	100 to 1000	N#CCC(=O)N1CCC[C@@H](Nc2c(-c3ncco3)cnc3[nH]ccc23)C1 [Example 5, (R)-3-(3-((5-(oxazol-2-yl)-1H-pyrrolo[2,3-b]pyridin-4-yl)amino)piperidin-1-yl)-3-oxopropanenitrile]
≤ 10	10 to 100	≤ 10	10 to 100	≤ 100	100 to 1000	> 1000	Cc1noc(-c2cnc3[nH]ccc3c2N[C@@H]2CCCN(C(=O)CC#N)C2)n1 [Example 6, (R)-3-(3-((5-(3-methyl-1,2,4-oxadiazol-5-yl)-1H-pyrrolo[2,3-b]pyridin-4-yl)amino)piperidin-1-yl)-3-oxopropanenitrile]
10 to 100	10 to 100	10 to 100	10 to 100	100 to 1000	100 to 1000	> 1000	N#CCC(=O)N1CCC[C@@H](Nc2c(-c3nnco3)cnc3[nH]ccc23)C1 [Example 7, (R)-3-(3-((5-(1,3,4-oxadiazol-2-yl)-1H-pyrrolo[2,3-b]pyridin-4-yl)amino)piperidin-1-yl)-3-oxopropanenitrile]
10 to 100	10 to 100	10 to 100	100 to 1000	100 to 1000	> 1000	> 1000	O[C@H]1CC[C@@H](Nc2c(-c3ncco3)cnc3[nH]ccc23)C1 [Example 13, (1S,3R)-3-((5-(oxazol-2-yl)-1H-pyrrolo[2,3-b]pyridin-4-yl)amino)cyclopentan-1-ol]
≤ 10	10 to 100	≤ 10	10 to 100	≤ 100	100 to 1000	> 1000	Cc1ccnc(-c2cnc3[nH]ccc3c2N[C@@H]2CCCN(C(=O)CC#N)C2)c1 [Example 15, (R)-3-(3-((5-(4-methylpyridin-2-yl)-1H-pyrrolo[2,3-b]pyridin-4-yl)amino)piperidin-1-yl)-3-oxopropanenitrile]
≤ 10	10 to 100	≤ 10	10 to 100	≤ 100	100 to 1000	> 1000	N#CCC(=O)N1CCC[C@@H](Nc2c(-c3ccn[nH]3)cnc3[nH]ccc23)C1 [Example 18, (R)-3-(3-((5-(1H-pyrazol-5-yl)-1H-pyrrolo[2,3-b]pyridin-4-yl)amino)piperidin-1-yl)-3-oxopropanenitrile]
10 to 100	100 to 1000	10 to 100	100 to 1000	100 to 1000	> 1000	> 1000	Cc1nc(-c2cnc3[nH]ccc3c2N[C@@H]2CCCN(C(=O)CC#N)C2)no1 [Example 19, (R)-3-(3-((5-(5-methyl-1,2,4-oxadiazol-3-yl)-1H-pyrrolo[2,3-b]pyridin-4-yl)amino)piperidin-1-yl)-3-oxopropanenitrile]
≤ 10	10 to 100	10 to 100	100 to 1000	≤ 100	100 to 1000	> 1000	Cc1cccc(-c2cnc3[nH]ccc3c2N[C@@H]2CCCN(C(=O)CC#N)C2)n1 [Example 20, (R)-3-(3-((5-(6-methylpyridin-2-yl)-1H-pyrrolo[2,3-b]pyridin-4-yl)amino)piperidin-1-yl)-3-oxopropanenitrile]
≤ 10	10 to 100	10 to 100	10 to 100	≤ 100	100 to 1000	100 to 1000	N#CCC(=O)N1CCC[C@@H](Nc2c(-c3ccccn3)cnc3[nH]ccc23)C1 [Example 21, (R)-3-oxo-3-(3-((5-(pyridin-2-yl)-1H-pyrrolo[2,3-b]pyridin-4-yl)amino)piperidin-1-yl)propanenitrile]
10 to 100	10 to 100	10 to 100	10 to 100	100 to 1000	100 to 1000	> 1000	Cc1ccc(-c2cnc3[nH]ccc3c2N[C@@H]2CCCN(C(=O)CC#N)C2)nc1 [Example 22, (R)-3-(3-((5-(5-methylpyridin-2-yl)-1H-pyrrolo[2,3-b]pyridin-4-yl)amino)piperidin-1-yl)-3-oxopropanenitrile]
10 to 100	100 to 1000	10 to 100	100 to 1000	100 to 1000	> 1000	> 1000	N#CCC(=O)N1CCC[C@@H](Nc2c(-c3ncccn3)cnc3[nH]ccc23)C1 [Example 23, (R)-3-oxo-3-(3-((5-(pyrimidin-2-yl)-1H-pyrrolo[2,3-b]pyridin-4-yl)amino)piperidin-1-yl)propanenitrile]
